The source of these data is patent US20240342111A1, “ISOMER-SPECIFIC NEUROPROTECTIVE EFFECT OF NATURAL RESERVATROL” (priority 2021, published 2024).

One test deals with GSK3β. Nature of the test: Immunoblot for inhibitory GSK3β phosphorylation. In kind it is cell-based, rat. The conditions noted are these: 16 hours. For orientation: In western blotting, separated proteins are transferred to a membrane and probed.
The next test has as its system OGG1. Kind of test: Immunoblot for OGG1 protein. In kind it is cell-based, rat. The settings on record: 5-50 μM, 4 hours.
Test [1] relates to Rat cortical neurons. Nature of the test: trans-RSV in combination with cis-RSV, viability by MTT assay. In kind it is cell-based. The settings on record: cis-RSV 10-50 μM in combination with trans-RSV, 48 hours. On the procedure: (§1) Cell viability was assessed and quantified using MTT assay.
Rat cortical neurons (DIV 10-11) were exposed to different treatments after seeding 20,000 cells/well in 96-well plates. Cell viability was then assessed at 48 hours after the initial exposure to NMDA. 3-[4,5-dimethylthiazole-2-yl]-2,5-diphenyltetrazolium bromide (MTT) assays were used to assess change in cell viability. Cultured rat cortical neurons were incubated with MTT (0.5 mg/mL). In the MTT assay, after 2 h incubation, the insoluble purple product formazan resulting from the reduction of MTT by NAD(P)H-dependent oxidoreductases present in cells with viable mitochondria was solubilized in dimethyl sulfoxide at room temperature, under agitation, and protected from light. The percentage of MTT reduced as measured by the difference between the absorbances at 570 nm read in a spectrophotometer (Spectramax 190R Molecular Devices, UK). The percentage of reduction of MTT was calculated comparing the difference of the absorbance at 570 of each sample. Results are presented as percentage of control (wells incubated with the vehicle).
Background: Tetrazolium dyes change colour on reduction, which living cells bring about.

The test system of test [2] is Rat cortical neurons. Nature of the test: DNA damage (etoposide)-induced neurotoxicity, MTT assay. It is filed as cell-based. The conditions noted are these: 5 μM etoposide 24 hours, pre-treatment 16 hours.
The subject of test [3] is Rat cortical neurons. Nature of the test: Oxidative stress (H2O2)-induced toxicity, viability. In kind it is cell-based. The settings on record: 400 μM H2O2 24 hours, pre-treatment 16 hours.
For another test, the system named is XRCC1. Kind of test: Immunoblot for DNA repair protein XRCC1. In kind it is cell-based, rat. The conditions noted are these: 5-50 μM, 4 hours. An excerpt: (§2) Ac-K56-H3 is a marker of genomic stability, see Driscoll, R., Hudson, A. & Jackson, S. P. Yeast Rtt109 promotes genome stability by acetylating histone H3 on lysine 56. Science 315, 649-652, doi:10.1126/science.1135862 (2007), and DNA damage, see Tjeertes, J. V., Miller, K. M. & Jackson, S. P. Screen for DNA-damage-responsive histone modifications identifies H3K9Ac and H3K56Ac in human cells. EMBO J 28, 1878-1889, doi:10.1038/emboj.2009.119 (2009), and inhibition of PARP1 causes the downregulation of RAD51, see Hegan, D. C. et al. Inhibition of poly(ADP-ribose) polymerase down-regulates BRCA1 and RAD51 in a pathway mediated by E2F4 and p130. […] The western blot images of the protein levels of HPF1 was quantified using ImageJ.
(§3) Cultured neurons (DIV 9-10) were washed once with cold 1×PBS and lysed in cell lysis buffer (20 mM Tris-HCl (pH 7.5), 150 mM NaCl, 1 mM Na2EDTA, 1 mM EGTA, 1% Triton, 2.5 mM sodium pyrophosphate, 1 mM beta-glycerophosphate, 1 mM Na3VO4, 1 μg/ml leupeptin supplemented with protease inhibitor). […] Lysates were quantified using Bio-Rad Protein Assay, and an equal amount of protein was loaded onto a 4 to 12% gradient gel (NuPAGE-Invitrogen). […] Quantification for the western blots was done using ImageJ (Version 1.53c).

The test system of a further test is Ac-K56-H3. The settings on record: diabetes patients, 500 mg/day; cited from earlier work.
Test [4] has as its system Rat cortical neurons transfected with PARP1 siRNA. Nature of the test: siRNA knockdown of PARP1, trans-RSV neurotoxicity, MTT assay. It is filed as cell-based. The conditions noted are these: trans-RSV 50 μM, 72 hours. The protocol:
as §1
Primary cortical neuron cultures were obtained from E18 Sprague Dawley rats' cortices, which were dissected in Hibernate E (BrainBits) and dissociated using the Neural Tissue Dissociation kit (Miltenyi Biotec). For this, minced cortices were incubated in a pre-warmed enzyme mix at 37° C. for 15 min; tissues were then triturated and strained using a 40 μm cell strainer. After washing and centrifugation, neurons were seeded in 50 μg/ml poly-D-Lysine (Sigma Aldrich) coated tissue culture plates. NBActive-1 medium (BrainBits) supplemented with 100 U/ml of Penicillin-Streptomycin (Life Technologies), 2 mM L-Glutamine (Life Technologies), and 1 X N21 supplement (R&D Systems) was used as culture medium. Control (AM4635), TyrRS (s443), PARP1 (s130207) siRNA for transfection were obtained from Invitrogen. […]
Rat cortical neurons (DIV 10-11) were exposed to different treatments after seeding 20,000 cells/well in 96-well plates. Cell viability was then assessed at 48 hours after the initial exposure to NMDA. […] The percentage of MTT reduced as measured by the difference between the absorbances at 570 nm read in a spectrophotometer (Spectramax 190R Molecular Devices, UK). The percentage of reduction of MTT was calculated comparing the difference of the absorbance at 570 of each sample. […]

In the next test the test system is HPF1. Nature of the test: Immunoblot for HPF1 protein. The conditions noted are these: high dose 25 μM, up to 16 hr, time-dependent. In kind it is cell-based, rat.
From the text: as §2, §3

Consider `Oc1ccc(/C=C\c2cc(O)cc(O)c2)cc1` [cis-RSV, cis-resveratrol], for which, in the test on GSK3β, the “GSK3β activity via inhibitory phosphorylation (pSer9)” value was “inhibited GSK3β through the upregulation of the inhibitory phosphorylation (pSer9)”. In the test with OGG1, the OGG1 protein levels entry was “downregulated both the protein levels of OGG1 and the levels of 8-oxo-dG”. In the test with Rat cortical neurons [1], the trans-RSV-mediated neurotoxicity entry is on record as “rescued trans-RSV-mediated neurotoxicity”. Further, the “protection from DNA damage-induced neurotoxicity” value with Rat cortical neurons [2] is reported as “protects neurons from DNA damage-induced neurotoxicity”. Further, in the test with Rat cortical neurons [3], the “protection from toxicity induced by oxidative stress” value was “protects neurons from toxicity induced by oxidative stress”. Further, the XRCC1 protein levels entry in the test on XRCC1 is listed as “upregulated them”.
`Oc1ccc(/C=C/c2cc(O)cc(O)c2)cc1` [trans-RSV, trans-resveratrol]: in the test with Ac-K56-H3, the “levels of Ac-K56-H3 in PBMC” value is “decreased levels of Ac-K56-H3”. In the test with GSK3β, the “GSK3β activity via inhibitory phosphorylation (pSer9)” value was “activated GSK3β by downregulating the levels of pSer9”. Moreover, the “effect of PARP1 siRNA knockdown on neurotoxicity” value in test [4] is on record as “protected against trans-RSV-mediated neurotoxicity”. In addition, the HPF1 protein levels result with HPF1 was “downregulated the protein levels of the histone poly-ADP-ribosylation factor 1 (HPF1)”. Further, in the test on XRCC1, the XRCC1 protein levels result is “downregulated the protein levels”.
